Consider 1 compound from patent US20160051567A1, “PREVENTION AND TREATMENT OF KIDNEY DAMAGE” (METSELEX, INC., priority 2013, published 2016).

The structures appear in SMILES notation.

One experiment deals with rat model of AKI. Briefly: Histological injury score (PAS stain) of kidney sections after AKI. Format: in vivo. As to conditions: five days after AKI, 400 mg/kg/day. As to the method: (§1) Rat model of AKI: All experiments were performed in accordance with the Institutional Animal Care and Use Committee. Six to eight week old Sprague-Dawley rats were anaesthetized by isoflurane gas, a midline abdominal incision was made, and bilateral renal pedicles were clamped for 45 minutes maintaining body temperature at 37° C. After removing the clamps, the abdomen was closed in two layers by using 4-0 absorbable sutures and Reflex 9 mm clips. Blood samples were obtained daily by tail vein puncture. Blood urea levels were measured by the improved Jung method using the QuantiChrom™ Urea Assay Kit as per manufacturer's protocol. Kidneys were harvested five days following surgery.
Administration of TUDCA: 200 mg/mL of TUDCA (Sigma) was dissolved in phosphate buffered saline at pH 7.5. 400 mg/kg of TUDCA or equal volume of vehicle was administered to rats by daily intraperitoneal injection from three days prior to surgery […] to five days (day 5) following surgery. The TUDCA dose was based on previous studies and its solubility at physiological pH.
Histology and TUNEL assay: 4% paraformaldehyde-fixed, paraffin-embedded 5 μm kidney sections were stained with Periodic acid-Schiff (PAS) stain using standard methods. Histological examination was performed by a renal pathologist in a blinded fashion. Histological injury was scored based on the percentage of tubular cell necrosis, dilation, and cell detachment as per the PAS protocol. Reagents for the PAS assay were purchased from Sigma-Aldrich (St. Louis, Mo.) and the accompanying protocol was used. […] Apoptotic cells were detected by TUNEL assay using an APO-DIRECT™ kit as per manufacturer's protocol. The average injury score and percentage of TUNEL-positive cells from the renal cortex (superficial and deep), medulla (outer and inner), and papilla were counted and calculated separately and averaged to obtain the total score. […]

The next experiment has as its system p38. Nature of the experiment: Western blot for p-p38 in kidney after AKI. The experiment is classed as in vivo. Particulars: rat kidney after AKI, TUDCA vs vehicle group. As to the method:
as §1
Administration of TUDCA: 200 mg/mL of TUDCA (Sigma) was dissolved in phosphate buffered saline at pH 7.5. […]
(§2) Protein extraction: Frozen kidney tissue was ground in liquid nitrogen using a pestle and mortar. […] The amount of protein present in the solution was quantified by the Bicinchoninic Acid Protein Assay kit as per manufacturer's protocol.
(§3) Western blot analysis: 20 μg of protein was mixed with SDS-PAGE sample buffer, boiled for 5 minutes, electrophoresed on a 12% Tris-HCl SDS-PAGE gel for 1 hour at 200 V, and electroblotted onto a nitrocellulose membrane. […] The immunoblot was detected using SuperSignal West Femto Maximum Sensitivity Substrate Kit. […]

The next experiment relates to caspase-8. Nature of the experiment: Western blot for caspase-8 in RPTE cells after cryopreservation injury. The experiment is classed as cell-based, human. As to the method: Cell culture: RPTE cells were grown in Renal Epithelial Cell Basal Medium (REBM) with full supplements at 37° C. in 5% CO2 incubator as per supplier's instructions. RPTE cells were able to proliferate for 6-8 passages under the culture conditions. Cryopreservation injury: We have utilized a published cell culture model of cryopreservation injury. In brief, RPTE cells were grown to 80% confluence in the complete medium containing TUDCA or vehicle. The complete medium was then replaced with University of Wisconsin solution containing TUDCA or vehicle. The culture plates were subsequently incubated in a temperature-regulated refrigerator at 4° C. for 48 hours. To simulate warm reperfusion phase of kidney transplantation, University of Wisconsin solution was replaced with complete medium containing TUDCA or vehicle, and cells were cultured for an additional 24 hours at 37° C. We used 100 μM or 150 μM of TUDCA for these experiments. Protein extraction: Frozen kidney tissue was ground in liquid nitrogen using a pestle and mortar. […] The amount of protein present in the solution was quantified by the Bicinchoninic Acid Protein Assay kit as per manufacturer's protocol. […] The immunoblot was detected using SuperSignal West Femto Maximum Sensitivity Substrate Kit. […]

Another experiment has as its system ERK1/2. Briefly: Western blot for phosphorylated ERK1/2 in RPTE cells after cryopreservation injury. Format: cell-based, human. As to the method:
Cell culture: RPTE cells were grown in Renal Epithelial Cell Basal Medium (REBM) with full supplements at 37° C. in 5% CO2 incubator as per supplier's instructions. RPTE cells were able to proliferate for 6-8 passages under the culture conditions.
Cryopreservation injury: We have utilized a published cell culture model of cryopreservation injury. In brief, RPTE cells were grown to 80% confluence in the complete medium containing TUDCA or vehicle. The complete medium was then replaced with University of Wisconsin solution containing TUDCA or vehicle. The culture plates were subsequently incubated in a temperature-regulated refrigerator at 4° C. for 48 hours. […]
as §2, §3
On the technique in general: In western blotting, separated proteins are transferred to a membrane and probed.

Turning to `C[C@H](CCC(=O)NCCS(=O)(=O)O)[C@H]1CC[C@H]2[C@@H]3[C@@H](O)C[C@@H]4C[C@H](O)CC[C@]4(C)[C@H]3CC[C@]12C` [TUDCA, tauroursodeoxycholic acid], the “histological injury vs vehicle-treated rats” value in the experiment on rat model of AKI (deep cortex, p<0.001) is reported as “significantly less injury”; in the experiment with rat model of AKI (medulla or papilla), “no differences”; with rat model of AKI (superficial cortex, p<0.05), “significantly less injury”. Moreover, in the experiment with p38, the “amount of p-p38” value is recorded as “No difference”. Also, the “activation of procaspase-8 (death receptor pathway)” value in the experiment on caspase-8 is listed as “no effect”. Further, the “activation of ERK1/2 (phosphorylated ERK1/2)” value in the experiment with ERK1/2 (100 μM, p<0.05) is on record as “activated ERK1/2”; with ERK1/2 (150 μM, p<0.01) it was “activated ERK1/2”.
